# Measurements reported in patent publication US20070074295A1 (priority 2000, published 2007).
# Columns and labels:
# rats = test: Effect of haloperidol and clozapine on PCP induced hypofunction: LCGU; format: in vivo, rat; settings: for LCGU, Au layer I / LCGU, Au layers II, III&IV / LCGU, Au layers V & VI / LCGU, AuD layer I / LCGU, AuD layers II, III&IV / LCGU, AuD layers V & VI / LCGU, CA1 molecular layer / LCGU, CA1 pyramidal cell layer / LCGU, CA1 stratum oriens / LCGU, CA1 stratum radiatum / LCGU, CA3 molecular layer / LCGU, CA3 pyramidal cell layer / LCGU, CA3 stratum oriens / LCGU, CA3 stratum radiatum / LCGU, DLL / LCGU, MD / LCGU, PrL layer I / LCGU, PrL layers II & III / LCGU, PrL layers V & VI / LCGU, Rt / LCGU, VLL / LCGU, cochlear nucleus / LCGU, mO layer I / LCGU, mO layers II & III / LCGU, mO layers V & VI: day 29
# From the text: The effect of antipsychotics on the positive symptoms is less well studied regarding imaging studies.
# CIRL1 mRNA = test: Semi-quantitative RT-PCR, prefrontal cortex, chronic PCP and antipsychotic treatment; format: in vivo, rat; settings: chronic PCP plus antipsychotic
# Experimental: FIG. 14 illustrates the level of CIRL1 mRNA present in the prefrontal cortex of rat brain following chronic PCP and antipsychotic treatment (n=12 for all groups apart from veh-veh where n=11). […] and […] (SEQ ID NOS: 25-26) were the primer sequences used to amplify this product.
# (§1) RT-PCR for specific isoforms of CIRL was then conducted in the prefrontal cortex.
# (§2) 1 ml of lysis buffer (Qiagen), including 1% β-mercaptoethanol, was added to approximately 50-100 mg of brain tissue. Tissue samples were homogenised using a ribolyser (Hybaid) with 3 bursts at 6.5 g lasting 20 seconds each. Samples were then spun at room temperature in a microfuge for 3 minutes. The supernatant was removed and re-spun for a further 3 minutes. The supernatant was decanted to a fresh tube to which an equal volume of 70% ethanol was added. The remaining RNA isolation procedure was carried out according to the manufacturer's protocol (Qiagen).
# (§3) Synthesis of cDNA was carried out according to manufacturers protocols (Life Technologies). Briefly 3-5μg of total RNA was reverse transcribed using oligo dT priming. After cDNA synthesis, samples were aliquoted and stored at −70° C. […]
# (§4) Alterations in expression levels were determined by semi-quantitative PCR. […] Samples were removed over 4 consecutive cycles, however, the first cycle to be removed sometimes varied depending on when logarithmic amplification was detected. […]
# CIRL2 variant AB mRNA = test: as above; format: in vivo, rat; settings: chronic PCP plus antipsychotic
# Experimental: FIG. 15 illustrates the level of CIRL2 variant AB mRNA present in the prefrontal cortex of rat brain following chronic PCP and antipsychotic treatment (n=12 for all groups apart from veh-veh where n=11). […] and […] (SEQ ID NOS: 27-28) were the primer sequences used to amplify this product.
# as §1, §2, §3, §4
# CIRL3 variant AA mRNA = test: as above; format: in vivo, rat; settings: chronic PCP plus antipsychotic
# Experimental: FIG. 16 illustrates the level of CIRL3 variant AA mRNA present in the prefrontal cortex of rat brain following chronic PCP and antipsychotic treatment (n=12 for all groups apart from veh-veh where n=11) […] and […] (SEQ ID NOS: 29-30) were the primer sequences used to amplify this product.
# as §1, §2, §3, §4
# TNFα mRNA = test: RT-PCR for TNFα mRNA in rat prefrontal cortex; format: in vivo; settings: chronic PCP in combination with haloperidol vs chronic PCP group
# Experimental: Four groups of rats were treated with (a) chronic PCP, (b) chronic vehicle (control), (c) chronic PCP plus chronic clozapine (as above) or (d) chronic PCP plus chronic haloperidol (as above). The tissue was processed for RNA extraction and RT-PCP as described above, using primers specific for TNFα mRNA.
# [1] = antipsychotic in conjunction with PCP 2.58 mgkg^−1
# [2] = clozapine or haloperidol via minipump
# [3] = i.p. PCP 2.58 mgkg^−1, minipump vehicle, clozapine 20 or haloperidol 1 mgkg^−1/day
# [4] = i.p. vehicle, minipump clozapine 20 or haloperidol 1 mgkg^−1/day
structure (smiles),measurement,setting,value
O=C(CCCN1CCC(O)(c2ccc(Cl)cc2)CC1)c1ccc(F)cc1 [haloperidol],"effect on PCP hypofunction in medial orbital cortex, prelimbic cortex, CA1, reticular nucleus of the thalamus",rats; [1],failed to modulate the hypofunction produced by PCP
same,"effect on PCP-induced hypofunction in auditory system (AuD, lateral lemniscus, cochlear nucleus)",rats; [1],reversed the PCP-induced hypofunction
same,"LCGU in auditory system (AuD, lateral lemniscus, cochlear nucleus), drug alone",rats; [2],did not produce a significant hypofunction
same,"LCGU in medial orbital cortex, prelimbic cortex, CA1, reticular nucleus of the thalamus, drug alone",rats; [2],produced a metabolic hypofunction
same,"LCGU, Au layer I",rats; [3],141 ± 8 μmol/100 g/min
same,"LCGU, Au layers II, III&IV",rats; [3],174 ± 10 μmol/100 g/min
same,"LCGU, Au layers V & VI",rats; [3],117 ± 7 μmol/100 g/min
same,"LCGU, AuD layer I",rats; [3],133 ± 7 μmol/100 g/min
same,"LCGU, AuD layers II, III&IV",rats; [3],156 ± 10 μmol/100 g/min
same,"LCGU, AuD layers V & VI",rats; [3],106 ± 6 μmol/100 g/min
same,"LCGU, CA1 molecular layer",rats; [3],97 ± 4 μmol/100 g/min
same,"LCGU, CA1 pyramidal cell layer",rats; [3],70 ± 4 μmol/100 g/min
same,"LCGU, CA1 stratum oriens",rats; [3],64 ± 4 μmol/100 g/min
same,"LCGU, CA1 stratum radiatum",rats; [3],74 ± 4 μmol/100 g/min
same,"LCGU, CA3 molecular layer",rats; [3],94 ± 6 μmol/100 g/min
same,"LCGU, CA3 pyramidal cell layer",rats; [3],74 ± 5 μmol/100 g/min
same,"LCGU, CA3 stratum oriens",rats; [3],69 ± 5 μmol/100 g/min
same,"LCGU, CA3 stratum radiatum",rats; [3],76 ± 5 μmol/100 g/min
same,"LCGU, DLL",rats; [3],107 ± 2 μmol/100 g/min
same,"LCGU, MD",rats; [3],119 ± 6 μmol/100 g/min
same,"LCGU, PrL layer I",rats; [3],115 ± 3 μmol/100 g/min
same,"LCGU, PrL layers II & III",rats; [3],134 ± 4 μmol/100 g/min
same,"LCGU, PrL layers V & VI",rats; [3],97 ± 3 μmol/100 g/min
same,"LCGU, Rt",rats; [3],80 ± 1 μmol/100 g/min
same,"LCGU, VLL",rats; [3],110 ± 3 μmol/100 g/min
same,"LCGU, cochlear nucleus",rats; [3],115 ± 2 μmol/100 g/min
same,"LCGU, mO layer I",rats; [3],105 ± 4 μmol/100 g/min
same,"LCGU, mO layers II & III",rats; [3],116 ± 4 μmol/100 g/min
same,"LCGU, mO layers V & VI",rats; [3],119 ± 4 μmol/100 g/min
same,"LCGU, Au layer I",rats; [4],142 ± 9 μmol/100 g/min
same,"LCGU, Au layers II, III&IV",rats; [4],167 ± 9 μmol/100 g/min
same,"LCGU, Au layers V & VI",rats; [4],112 ± 9 μmol/100 g/min
same,"LCGU, AuD layer I",rats; [4],139 ± 9 μmol/100 g/min
same,"LCGU, AuD layers II, III&IV",rats; [4],153 ± 9 μmol/100 g/min
same,"LCGU, AuD layers V & VI",rats; [4],108 ± 7 μmol/100 g/min
same,"LCGU, CA1 molecular layer",rats; [4],92 ± 5 μmol/100 g/min
same,"LCGU, CA1 pyramidal cell layer",rats; [4],63 ± 4 μmol/100 g/min
same,"LCGU, CA1 stratum oriens",rats; [4],59 ± 4 μmol/100 g/min
same,"LCGU, CA1 stratum radiatum",rats; [4],66 ± 4 μmol/100 g/min
same,"LCGU, CA3 molecular layer",rats; [4],90 ± 4 μmol/100 g/min
same,"LCGU, CA3 pyramidal cell layer",rats; [4],71 ± 4 μmol/100 g/min
same,"LCGU, CA3 stratum oriens",rats; [4],64 ± 4 μmol/100 g/min
same,"LCGU, CA3 stratum radiatum",rats; [4],73 ± 1 μmol/100 g/min
same,"LCGU, DLL",rats; [4],92 ± 4 μmol/100 g/min
same,"LCGU, MD",rats; [4],117 ± 5 μmol/100 g/min
same,"LCGU, PrL layer I",rats; [4],114 ± 4 μmol/100 g/min
same,"LCGU, PrL layers II & III",rats; [4],131 ± 4 μmol/100 g/min
same,"LCGU, PrL layers V & VI",rats; [4],93 ± 4 μmol/100 g/min
same,"LCGU, Rt",rats; [4],86 ± 4 μmol/100 g/min
same,"LCGU, VLL",rats; [4],106 ± 5 μmol/100 g/min
same,"LCGU, cochlear nucleus",rats; [4],99 ± 9 μmol/100 g/min
same,"LCGU, mO layer I",rats; [4],93 ± 4 μmol/100 g/min
same,"LCGU, mO layers II & III",rats; [4],106 ± 4 μmol/100 g/min
same,"LCGU, mO layers V & VI",rats; [4],102 ± 4 μmol/100 g/min
same,effect on PCP-induced reductions in the level of CIRL1 mRNA,CIRL1 mRNA,not
same,effect on PCP-induced reductions in CIRL2,CIRL2 variant AB mRNA,reversed
same,effect on PCP-induced reductions in CIRL3,CIRL3 variant AA mRNA,reversed
same,levels of TNFα in rat prefrontal cortex,TNFα mRNA,significantly different from the chronic PCP group
CN1CCN(C2=Nc3cc(Cl)ccc3Nc3ccccc32)CC1 [clozapine],"LCGU, Au layer I",rats; [3],140 ± 5 μmol/100 g/min
same,"LCGU, Au layers II, III&IV",rats; [3],166 ± 6 μmol/100 g/min
same,"LCGU, Au layers V & VI",rats; [3],118 ± 4 μmol/100 g/min
same,"LCGU, AuD layer I",rats; [3],135 ± 5 μmol/100 g/min
same,"LCGU, AuD layers II, III&IV",rats; [3],152 ± 6 μmol/100 g/min
same,"LCGU, AuD layers V & VI",rats; [3],107 ± 4 μmol/100 g/min
same,"LCGU, CA1 molecular layer",rats; [3],87 ± 2 μmol/100 g/min
same,"LCGU, CA1 pyramidal cell layer",rats; [3],62 ± 2 μmol/100 g/min
same,"LCGU, CA1 stratum oriens",rats; [3],57 ± 2 μmol/100 g/min
same,"LCGU, CA1 stratum radiatum",rats; [3],66 ± 3 μmol/100 g/min
same,"LCGU, CA3 molecular layer",rats; [3],84 ± 2 μmol/100 g/min
same,"LCGU, CA3 pyramidal cell layer",rats; [3],69 ± 3 μmol/100 g/min
same,"LCGU, CA3 stratum oriens",rats; [3],62 ± 1 μmol/100 g/min
same,"LCGU, CA3 stratum radiatum",rats; [3],69 ± 2 μmol/100 g/min
same,"LCGU, DLL",rats; [3],108 ± 5 μmol/100 g/min
same,"LCGU, MD",rats; [3],113 ± 3 μmol/100 g/min
same,"LCGU, PrL layer I",rats; [3],118 ± 6 μmol/100 g/min
same,"LCGU, PrL layers II & III",rats; [3],134 ± 7 μmol/100 g/min
same,"LCGU, PrL layers V & VI",rats; [3],104 ± 5 μmol/100 g/min
same,"LCGU, Rt",rats; [3],81 ± 2 μmol/100 g/min
same,"LCGU, VLL",rats; [3],118 ± 5 μmol/100 g/min
same,"LCGU, cochlear nucleus",rats; [3],119 ± 8 μmol/100 g/min
same,"LCGU, mO layer I",rats; [3],104 ± 5 μmol/100 g/min
same,"LCGU, mO layers II & III",rats; [3],112 ± 6 μmol/100 g/min
same,"LCGU, mO layers V & VI",rats; [3],115 ± 5 μmol/100 g/min
same,"LCGU, Au layer I",rats; [4],136 ± 6 μmol/100 g/min
same,"LCGU, Au layers II, III&IV",rats; [4],169 ± 6 μmol/100 g/min
same,"LCGU, Au layers V & VI",rats; [4],126 ± 4 μmol/100 g/min
same,"LCGU, AuD layer I",rats; [4],136 ± 4 μmol/100 g/min
same,"LCGU, AuD layers II, III&IV",rats; [4],154 ± 5 μmol/100 g/min
same,"LCGU, AuD layers V & VI",rats; [4],115 ± 6 μmol/100 g/min
same,"LCGU, CA1 molecular layer",rats; [4],102 ± 5 μmol/100 g/min
same,"LCGU, CA1 pyramidal cell layer",rats; [4],78 ± 4 μmol/100 g/min
same,"LCGU, CA1 stratum oriens",rats; [4],72 ± 4 μmol/100 g/min
same,"LCGU, CA1 stratum radiatum",rats; [4],80 ± 4 μmol/100 g/min
same,"LCGU, CA3 molecular layer",rats; [4],96 ± 4 μmol/100 g/min
same,"LCGU, CA3 pyramidal cell layer",rats; [4],81 ± 4 μmol/100 g/min
same,"LCGU, CA3 stratum oriens",rats; [4],74 ± 4 μmol/100 g/min
same,"LCGU, CA3 stratum radiatum",rats; [4],83 ± 5 μmol/100 g/min
same,"LCGU, DLL",rats; [4],99 ± 5 μmol/100 g/min
same,"LCGU, MD",rats; [4],124 ± 6 μmol/100 g/min
same,"LCGU, PrL layer I",rats; [4],119 ± 4 μmol/100 g/min
same,"LCGU, PrL layers II & III",rats; [4],139 ± 5 μmol/100 g/min
same,"LCGU, PrL layers V & VI",rats; [4],98 ± 4 μmol/100 g/min
same,"LCGU, Rt",rats; [4],95 ± 4 μmol/100 g/min
same,"LCGU, VLL",rats; [4],109 ± 5 μmol/100 g/min
same,"LCGU, cochlear nucleus",rats; [4],108 ± 7 μmol/100 g/min
same,"LCGU, mO layer I",rats; [4],93 ± 4 μmol/100 g/min
same,"LCGU, mO layers II & III",rats; [4],109 ± 4 μmol/100 g/min
same,"LCGU, mO layers V & VI",rats; [4],106 ± 5 μmol/100 g/min
